Legend:
Format in all cases: cell-based
[1] = system: HCV replicon genotype 1a-H77; experiment: Stable subgenomic replicon luciferase assay, genotype 1a-H77; details: Hepatitis C virus, luciferase reporter, 5% FBS, read-out: Mean EC50 ± Std. Dev.
[2] = system: HCV replicon genotype 1b-Con1; experiment: Stable subgenomic replicon luciferase assay, genotype 1b-Con1; details: Hepatitis C virus, luciferase reporter, 5% FBS, read-out: Mean EC50 ± Std. Dev.
[3] = system: HCV replicon with NS5A from genotype 2a; experiment: Stable chimeric 1b-Con1 replicon with NS5A from genotype 2a; details: Hepatitis C virus, read-out: Mean EC50 ± Std. Dev.
[4] = system: HCV replicon with NS5A from genotype 2b; experiment: Stable chimeric 1b-Con1 replicon with NS5A from genotype 2b; details: Hepatitis C virus, read-out: Mean EC50 ± Std. Dev.
[5] = system: HCV replicon with NS5A from genotype 3a; experiment: Stable chimeric 1b-Con1 replicon with NS5A from genotype 3a; details: Hepatitis C virus, read-out: Mean EC50 ± Std. Dev.
[6] = system: HCV replicon with NS5A from genotype 4a; experiment: Stable chimeric 1b-Con1 replicon with NS5A from genotype 4a; details: Hepatitis C virus, read-out: Mean EC50 ± Std. Dev.
[7] = system: HCV replicon with NS5A from genotype 5a; experiment: Stable chimeric 1b-Con1 replicon with NS5A from genotype 5a; details: Hepatitis C virus, read-out: Mean EC50 ± Std. Dev.
[8] = system: HCV replicon with NS5A from genotype 6a; experiment: Stable chimeric 1b-Con1 replicon with NS5A from genotype 6a; details: Hepatitis C virus, read-out: Mean EC50 ± Std. Dev.
[9] = system: HCV replicon with NS5A genotype 2a wild type; experiment: Transient chimeric replicon assay, genotype 2a WT; details: Hepatitis C virus, read-out: Average EC50
Excerpt: (§1) Transiently replicating chimeric replicons containing NS5A from genotype 2-6 wild types or replicons containing variants within NS5A were constructed in the 1b-Con1 background. These replicons also contained a firefly luciferase reporter gene. Variants were introduced by site-directed mutagenesis using the Change-IT Multiple Mutation Site Directed Mutagenesis Kit (USB). After the mutagenesis was confirmed by sequence analysis, the plasmids were linearized with Scat restriction enzyme. The TranscriptAid T7 High Yield Transcription Kit (Fermentas) was used to transcribe the HCV subgenomic RNA from the plasmids. The RNA was transfected via electroporation into a Huh-7 derived cell line as described (see Middleton et al. and Tripathi et al., supra) except that 3×10^6 cells were electroporated with 15 μg of template RNA and the 96 well plate was seeded with 7.5×10^3 cells per well. Four hours post-transfection, the wells from one plate were harvested for luciferase measurement. […] Luciferin solution (50 μl, Promega) was added to each well, and luciferase activity was measured with a Victor II luminometer (Perkin-Elmer). The percent inhibition of HCV RNA replication was calculated for each compound concentration and the EC50 value was calculated using nonlinear regression curve fitting to the 4-parameter logistic equation and GraphPad Prism 4 software.

[10] = system: HCV replicon with NS5A genotype 2a T24A variant; experiment: Transient chimeric replicon assay, genotype 2a T24A; details: Hepatitis C virus, read-out: Average EC50
Excerpt: as §1

[11] = system: HCV replicon with NS5A genotype 2b wild type; experiment: Transient chimeric replicon assay, genotype 2b WT; details: Hepatitis C virus, read-out: Average EC50
Excerpt: as §1

[12] = system: HCV replicon with NS5A genotype 2b L28F variant; experiment: Transient chimeric replicon assay, genotype 2b L28F; details: Hepatitis C virus, read-out: Average EC50
Excerpt: as §1

[13] = system: HCV replicon with NS5A genotype 3a wild type; experiment: Transient chimeric replicon assay, genotype 3a WT; details: Hepatitis C virus, read-out: Average EC50
Excerpt: as §1

[14] = system: HCV replicon with NS5A genotype 3a Y93H variant; experiment: Transient chimeric replicon assay, genotype 3a Y93H; details: Hepatitis C virus, read-out: Average EC50
Excerpt: as §1

[15] = system: HCV replicon with NS5A genotype 4a L30H variant; experiment: Transient chimeric replicon assay, genotype 4a L30H; details: Hepatitis C virus, read-out: Average EC50
Excerpt: as §1

[16] = system: HCV replicon with NS5A genotype 5a wild type; experiment: Transient chimeric replicon assay, genotype 5a WT; details: Hepatitis C virus, read-out: Average EC50
Excerpt: as §1

[17] = system: HCV replicon with NS5A genotype 5a L28I variant; experiment: Transient chimeric replicon assay, genotype 5a L28I; details: Hepatitis C virus, read-out: Average EC50
Excerpt: as §1

[18] = system: HCV replicon with NS5A genotype 5a L31F variant; experiment: Transient chimeric replicon assay, genotype 5a L31F; details: Hepatitis C virus, read-out: Average EC50
Excerpt: as §1

[19] = system: HCV replicon with NS5A genotype 6a wild type; experiment: Transient chimeric replicon assay, genotype 6a WT; details: Hepatitis C virus, read-out: Average EC50
Excerpt: as §1

[20] = system: HCV replicon with NS5A genotype 6a T58N variant; experiment: Transient chimeric replicon assay, genotype 6a T58N; details: Hepatitis C virus, read-out: Average EC50
Excerpt: as §1

[21] = system: HCV replicon with NS5A genotype 6a L31V variant; experiment: Transient chimeric replicon assay, genotype 6a L31V; details: Hepatitis C virus, read-out: Average EC50
Excerpt: as §1

[22] = system: HCV replicon with NS5A genotype 6a T58A variant; experiment: Transient chimeric replicon assay, genotype 6a T58A; details: Hepatitis C virus, read-out: Average EC50
Excerpt: as §1

[23] = system: stable subgenomic replicons with NS5A from HCV genotype 1a, 1b, 2a, 2b, 3a, 4a, 5a, and 6a; experiment: Stable subgenomic replicons, genotype panel (summary statement); details: Hepatitis C virus, read-out: EC50 values against stable subgenomic replicons with NS5A from a broad range of HCV genotypes
[24] = system: HCV variants that are resistant to other NS5A inhibitors; experiment: Transient subgenomic replicon assays, resistant variant panel (summary statement); details: Hepatitis C virus, read-out: EC50 values against HCV variants resistant to other NS5A inhibitors, transient subgenomic replicon assays
Excerpt: as §1

[25] = system: HCV replicon with NS5A genotype 2b L31V variant; experiment: Transient chimeric replicon assay, genotype 2b L31V; details: Hepatitis C virus, read-out: Average EC50
Excerpt: as §1

[26] = system: HCV replicon with NS5A genotype 3a M28T variant; experiment: Transient chimeric replicon assay, genotype 3a M28T; details: Hepatitis C virus, read-out: Average EC50
Excerpt: as §1

[27] = system: HCV replicon with NS5A genotype 4a L28V variant; experiment: Transient chimeric replicon assay, genotype 4a L28V; details: Hepatitis C virus, read-out: Average EC50
Excerpt: as §1

[28] = system: HCV replicon with NS5A genotype 5a L31V variant; experiment: Transient chimeric replicon assay, genotype 5a L31V; details: Hepatitis C virus, read-out: Average EC50
Excerpt: as §1

COC(=O)N[C@H](C(=O)N1CCC[C@H]1c1nc2cc([C@H]3CC[C@H](c4cc5nc([C@@H]6CCCN6C(=O)[C@@H](NC(=O)OC)[C@@H](C)OC)[nH]c5cc4F)N3c3cc(F)c(N4CCC(c5ccc(F)cc5)CC4)c(F)c3)c(F)cc2[nH]1)[C@@H](C)OC [Compound 1, methyl {(2S,3R)-1-[(2S)-2-{5-[(2R,5R)-1-{3,5-difluoro-4-[4-(4-fluorophenyl)piperidin-1-yl]phenyl}-5-(6-fluoro-2-{(2S)-1-[N-(methoxycarbonyl)-O-methyl-L-threonyl]pyrrolidin-2-yl}-1H-benzimidazol-5-yl)pyrrolidin-2-yl]-6-fluoro-1H-benzimidazol-2-yl}pyrrolidin-1-yl]-3-methoxy-1-oxobutan-2-yl}carbamate]
EC50 [1]: 0.0018 ± 0.0009 nM | EC50 [2]: 0.0043 ± 0.0017 nM | EC50 [3]: 0.0023 ± 0.0007 nM | EC50 [4]: 0.0019 ± 0.0006 nM | EC50 [5]: 0.0021 ± 0.0007 nM | EC50 [6]: 0.0019 ± 0.0006 nM | EC50 [7]: 0.0014 ± 0.0004 nM | EC50 [8]: 0.0028 ± 0.0007 nM | EC50 [9]: 0.0013 nM | EC50 [10]: 0.0013 nM | EC50 [11]: 0.001 nM | EC50 [12]: 0.0011 nM | EC50 [13]: 0.0018 nM | EC50 [14]: 0.0043 nM | EC50 [15]: 0.001 nM | EC50 [16]: 0.0011 nM | EC50 [17]: 0.001 nM | EC50 [18]: 0.0019 nM | EC50 [19]: 0.0014 nM | EC50 [20]: 0.0025 nM | EC50 [21]: 0.001 nM | EC50 [22]: 0.0015 nM | EC50 [23]: < 10000 nM | EC50 [24]: < 5000 nM

COC(=O)N[C@H](C(=O)N1CCC[C@H]1C(=O)Nc1ccc([C@@H]2CC[C@@H](c3ccc(NC(=O)[C@@H]4CCCN4C(=O)[C@@H](NC(=O)OC)C(C)C)cc3)N2c2ccc(C(C)(C)C)cc2)cc1)C(C)C [reference compound, reference compound]
EC50 [9]: 0.0034 nM | EC50 [10]: 0.092 nM | EC50 [11]: 0.0011 nM | EC50 [12]: 0.039 nM | EC50 [25]: 0.427 nM | EC50 [13]: 0.0072 nM | EC50 [26]: 3.03 nM | EC50 [14]: > 100 nM | EC50 [27]: 0.0053 nM | EC50 [17]: 0.072 nM | EC50 [18]: 0.263 nM | EC50 [28]: 0.221 nM | EC50 [19]: 0.08 nM | EC50 [20]: 8.47 nM | EC50 [21]: 5.04 nM | EC50 [22]: 1.15 nM

From patent publication US20140080868A1, “Methods for Treating HCV” (priority 2012, published 2014)
